Experimental data: patent US12559474B2, “Triazine derivatives having virus replication inhibitory activity and pharmaceutical composition comprising the same” (priority 2021, dated 2026)
Where two headings read alike, the source gives them in different places.

Experiments:
SARS-CoV-2 = assay: microbe, parasite or virus in culture; assay type: cell-based; settings: Severe acute respiratory syndrome coronavirus 2, VeroE6/TMPRSS2, 72 h, 50% SARS-CoV-2 infected cell death inhibitory concentration, VeroE6/TMPRSS2 cells, 3 days culture
SARS-CoV-2 3CL protease = SARS-CoV-2 3CL protease (Severe acute respiratory syndrome coronavirus 2, UniProt P0DTD1); assay: biochemical; settings: 50% SARS-CoV-2 3CL protease inhibitory concentration, read-out: IC50

SMILES	EC50 (SARS-CoV-2; class symbols) [nM]	IC50 (SARS-CoV-2 3CL protease; given as class symbols) [nM]	EC50 (SARS-CoV-2; CellTiter-Glo 2.0) [nM]	IC50 (SARS-CoV-2 3CL protease; RapidFire MS) [nM]
CCOc1ccc(Nc2nc(=O)n(Cc3ccc[nH]c3=O)c(=O)n2Cc2cc(F)c(F)c(F)c2)c(Cl)c1 [Compound I-0242]	< 1000	< 100	–	–
Cc1cncc(-n2c(=O)nc(Nc3ccc4c(c3)CCO4)n(Cc3ccc(F)c(C#N)c3)c2=O)c1 [Compound I-0354]	–	–	107	5
Cc1cncc(-n2c(=O)nc(Nc3cc4cn(CC(F)F)nc4cc3Cl)n(Cc3cc(C#N)ccc3C)c2=O)c1 [II-0577]	–	–	85	1.1
Cc1c2cc(Nc3nc(=O)n(Cc4ncn(C)n4)c(=O)n3Cc3cc(F)c(F)c(F)c3)c(Cl)cc2nn1C [II-0452]	1000 to 10000	< 100	–	–
Cc1cncc(-n2c(=O)nc(Nc3cc4cn(C)nc4cc3Cl)n(Cc3cc(Cl)c(F)c(Cl)c3)c2=O)c1 [II-0588]	< 1000	< 100	–	–
Cc1cncc(-n2c(=O)nc(Nc3ccc4nn(C)nc4c3)n(Cc3cc(F)c(F)c(F)c3)c2=O)c1 [II-0221]	1000 to 10000	< 100	–	–
Cc1cncc(-n2c(=O)nc(Nc3cc4cn(CC(F)F)nc4cc3F)n(Cc3cc(F)c(F)c(Cl)c3)c2=O)c1 [II-0058]	< 1000	< 100	–	–
CNc1nc2ccc(Nc3nc(=O)n(-c4cncc(C)c4)c(=O)n3Cc3ccc(F)c(C#N)c3)cc2s1 [II-0313]	< 1000	< 100	–	–
Cc1cncc(-n2c(=O)nc(Nc3cc4oc(C)nc4cc3C)n(Cc3ccc(F)c(C#N)c3)c2=O)c1 [II-0110]	< 1000	< 100	–	–
Cc1cncc(-n2c(=O)nc(Nc3cc4cn(C)nc4cc3Cl)n(Cc3cc(C#N)cnc3C)c2=O)c1 [II-0537]	1000 to 10000	< 100	–	–
Cn1cnc(Cn2c(=O)nc(Nc3cc4oc(N)nc4cc3Cl)n(Cc3cc(F)c(F)cc3F)c2=O)n1 [II-0057]	1000 to 10000	< 100	–	–
Cn1cc2cc(Nc3nc(=O)n(Cc4ccc[nH]c4=O)c(=O)n3Cc3cc(F)c(F)c(F)c3)c(Cl)cc2n1 [Compound I-0436]	< 1000	< 100	–	–
Cc1cc(Cn2cc3cc(Nc4nc(=O)n(Cc5ccc[nH]c5=O)c(=O)n4Cc4cc(F)c(F)c(F)c4)c(Cl)cc3n2)no1 [II-0348]	1000 to 10000	< 100	–	–
Cc1cncc(-n2c(=O)nc(Nc3cc4cccnc4cc3Cl)n(Cc3ccc(F)c(C#N)c3)c2=O)c1 [II-0463]	< 1000	< 100	–	–
Cn1cc2cc(Nc3nc(=O)n(Cc4ccc[nH]c4=O)c(=O)n3Cc3ccc(F)c(C#N)c3)c(Cl)cc2n1 [Compound I-0267]	1000 to 10000	< 100	–	–
Cc1cncc(-n2c(=O)nc(Nc3cc4c(cc3Cl)nc3n4CCN3)n(Cc3ccc(F)c(C#N)c3)c2=O)c1 [II-0407]	–	–	15000	3.8
Cc1cncc(-n2c(=O)nc(Nc3cc4cn(CCN5CCOCC5)nc4cc3Cl)n(Cc3cc(F)c(F)c(F)c3)c2=O)c1 [II-0351]	< 1000	< 100	–	–
Cc1ccc(Cl)cc1Cn1c(Nc2cc3c(cc2Cl)nc2n3CCN2)nc(=O)n(-c2cncc(Cl)c2)c1=O [II-0095]	< 1000	< 100	–	–
Cn1cc2cc(Nc3nc(=O)n(-c4cncc(N)c4)c(=O)n3Cc3cc(F)c(F)cc3F)c(Cl)cc2n1 [II-0386]	1000 to 10000	< 100	–	–
O=c1[nH]cccc1Cn1c(=O)nc(Nc2cc3cn(C4CC(F)(F)C4)nc3cc2Cl)n(Cc2cc(F)c(F)c(F)c2)c1=O [Compound I-0470]	1000 to 10000	< 100	–	–
CNC(=O)Cn1cc2cc(Nc3nc(=O)n(-c4cncc(C)c4)c(=O)n3Cc3cc(F)c(F)c(F)c3)c(Cl)cc2n1 [II-0440]	1000 to 10000	< 100	–	–
C[C@@H](O)Cn1cc2cc(Nc3nc(=O)n(Cc4cc(Cl)c[nH]c4=O)c(=O)n3Cc3cc(F)c(F)c(F)c3)c(Cl)cc2n1 [Compound I-0290]	1000 to 10000	< 100	–	–
Cn1cc2cc(Nc3nc(=O)n(-c4cncc5ccccc45)c(=O)n3Cc3cc(F)c(F)cc3F)c(Cl)cc2n1 [II-0308]	< 1000	< 100	–	–
